Results published in paper PMC11085077, “Designing Antitrypanosomal and Antileishmanial BODIPY Derivatives: A Computational and In Vitro Assessment” (Molecules, 2024).
“And” between values parts separate entries of the source, which are not always exact repeats. Identical values can stand only once.

Key:
L. major promastigotes = assay: Antileishmanial activity, MTT-based assay; format: cell-based, Leishmania major; conditions: for IC50: promastigotes, 72 h incubation, MTT, error reported as σ
Procedure: The in vitro antitrypanosomal and antileishmanial activity of the BODIPY derivatives were evaluated on the bloodstream form (BSF) of T. brucei and the promastigote form of L. major parasites. The toxicity of the compounds was determined after 72 h of incubation using the alamarBlue assay (for T. brucei) and the MTT assay (for L. major). The cytotoxicity of the compounds on a healthy human cell line (human lung fibroblast, MRC-5) was also determined after 72 h of incubation using the alamarBlue assay. The data were expressed as the half maximal inhibitory concentration (IC50). The selectivity index (SI) of each derivative was calculated by dividing the IC50 of MRC-5 cells into the IC50 of T. brucei or L. major. L. major (MHOM/IL/80/Friedlin) promastigotes were cultured at 28 °C, 5% CO2 in modified RPMI-1640 medium (Invitrogen, Carlsbad, CA, USA) supplemented with 10% hiFBS [49]. Parasites were maintained in culture in their […] growth phase (below 2 million parasites per mL for T. brucei and 10 million parasites per mL for L. major). The antileishmanial activity of the BODIPY derivatives was assessed using an MTT-based assay (Sigma-Aldrich, St. Louis, MO, USA). The stock solutions of the compounds were prepared in DMSO and the final DMSO percentage in each well was adjusted to be less than 1%. A total of 4 × 10^6 parasites per mL were incubated at 28 °C in 96-well plates (50 μL/well) alone or in the presence of an increasing concentration of compounds DMSO for 72 h. A total of 10 μL of MTT (5 mg/mL) were added to each well and parasites were incubated for 4 h at 28 °C. Finally, cells were lysed with 50 μL/well of 20% SDS. The plate was incubated at 37 °C for an extra hour and then, absorbance was measured at the Infinite F200 plate reader (TECAN Austria, GmbH, Grödig, Austria) at a wavelength of 540 nm. The IC50 was calculated as described above. Data are presented as the average of at least three independent measurements, all conducted in triplicate conditions.

[1] = test system: MRC-5 cell line (human lung fibroblast); assay: Cytotoxicity, alamarBlue assay; format: cell-based; conditions: 72 h incubation, error reported as σ
Procedure: The in vitro antitrypanosomal and antileishmanial activity of the BODIPY derivatives were evaluated on the bloodstream form (BSF) of T. brucei and the promastigote form of L. major parasites. The toxicity of the compounds was determined after 72 h of incubation using the alamarBlue assay (for T. brucei) and the MTT assay (for L. major). The cytotoxicity of the compounds on a healthy human cell line (human lung fibroblast, MRC-5) was also determined after 72 h of incubation using the alamarBlue assay. The data were expressed as the half maximal inhibitory concentration (IC50). The selectivity index (SI) of each derivative was calculated by dividing the IC50 of MRC-5 cells into the IC50 of T. brucei or L. major. MRC-5 cell line (human lung fibroblast) was grown in a monolayer at 37 °C, 5% CO2 in DMEM medium (1 g/L glucose) supplemented with 10% hiFBS, 100 U/mL penicillin, […] and 2 mM L-glutamine. Cytotoxicity was measured in MRC-5 through alamarBlue® assay (ThermoFisher Scientific). The stock solutions of the compounds were prepared in DMSO and the final DMSO percentage in each well was adjusted to be less than 1%. A total of 5 × 10^3 cells per mL were seeded in 96-well plates (100 μL/well) with 24 h of incubation time before compound addition at 37 °C, 5% CO2. Then, the compounds were added at increasing concentrations (from 0 to 100 μM) and the plates were incubated for 72 h. A total of 20 μL of resazurin solution (110 ng/mL) was added to each well and cells were incubated for 4 h. Then, cells were lysed with 50 μL/well of 3% SDS. The plate was incubated at 37 °C for an extra hour and then, the fluorescence intensity was measured at the Infinite F200 plate reader (TECAN Austria, GmbH), exciting at 550 nm and recording the emission at 590 nm. The results are expressed as the concentration of a compound that reduces cell growth by 50% versus untreated control cells (IC50). Data are presented as the average of at least three independent measurements, all conducted in triplicate conditions.

[2] = Solubility in water (statement); format: physicochemical
T. brucei BSF = assay: Antitrypanosomal activity, alamarBlue assay; format: cell-based, Trypanosoma brucei; conditions: for Selectivity Index (SI) T. brucei: SI = IC50 MRC-5/IC50 parasite; for IC50: bloodstream form, 72 h incubation, alamarBlue, error reported as σ
Procedure: The in vitro antitrypanosomal and antileishmanial activity of the BODIPY derivatives were evaluated on the bloodstream form (BSF) of T. brucei and the promastigote form of L. major parasites. The toxicity of the compounds was determined after 72 h of incubation using the alamarBlue assay (for T. brucei) and the MTT assay (for L. major). The cytotoxicity of the compounds on a healthy human cell line (human lung fibroblast, MRC-5) was also determined after 72 h of incubation using the alamarBlue assay. The data were expressed as the half maximal inhibitory concentration (IC50). The selectivity index (SI) of each derivative was calculated by dividing the IC50 of MRC-5 cells into the IC50 of T. brucei or L. major.
T. brucei (Lister 427, antigenic type MiTat 1.2, clone 221a, bloodstream forms, “single marker” S427 (S16)) were cultured at 37 °C, 5% CO2 in HMI-9 medium supplemented with 10% heat-inactivated fetal bovine serum (hiFBS, Invitrogen, Carlsbad, CA, USA), as previously described.
The antitrypanosomal activity of the BODIPY derivatives was determined by the alamarBlue® assay (ThermoFisher Scientific, Waltham, MA, USA). The stock solutions of the compounds were prepared in DMSO and the final DMSO percentage in each well was adjusted to be less than 1%. A total of 2 × 10^4 parasites per mL were incubated at 37 °C, 5% CO2 in 96-well plates (50 μL/well) alone or in the presence of an increasing concentration of compounds for 72 h. A total of 20 μL of resazurin solution (110 ng/mL) was then added to each well, and the parasites were incubated for 4 h at 37 °C. Finally, cells were lysed with 50 μL per well of SDS 3%. The plate was incubated at 37 °C for an extra hour and then, fluorescence intensity was measured with an Infinite F200 plate reader (Tecan Austria, GmbH, Grödig, Austria), exciting at 550 nm and recording the emission at 590 nm. The results are expressed as the concentration of a compound that reduces cell growth by 50% versus untreated control cells (IC50). Data are presented as the average of at least three independent measurements, all conducted in triplicate conditions.

Trypanosoma brucei = conditions: read-out: inhibitory concentration against T. brucei; cited from earlier work
Leishmania major = conditions: read-out: inhibitory concentration against L. major; cited from earlier work

| IC50 (L. major promastigotes; Leishmania major) | solubility in water (in words) [2] | IC50 (T. brucei BSF; Trypanosoma brucei) | IC50 (L. major promastigotes) | IC50 (T. brucei BSF) | SMILES | Selectivity Index (SI) L. major (L. major promastigotes; SI = IC50 MRC-5/IC50 parasite) | IC50 ([1]; MRC5, healthy human lung fibroblasts) | Selectivity Index (SI) T. brucei (T. brucei BSF) | IC50 (Trypanosoma brucei) | IC50 (Leishmania major) | IC50 ([1]; healthy human lung fibroblasts) | antitrypanosomal activity (in words) (T. brucei BSF; classification used for docking analysis) |
| --- | --- | --- | --- | --- | --- | --- | --- | --- | --- | --- | --- | --- |
| > 50 µM | low solubility in water | 28.1 ± 1.77 µM | – | – | CC1=C(I)C(C)=[N+]2C1=C(c1c3ccccc3cc3ccccc13)c1c(C)c(I)c(C)n1[B-]2(F)F [Compound 4c] | <0.96 | 48.2 ± 1.13 µM | 1.72 | – | – | – | – |
| – | – | – | – | – | CN(Cc1cnc2nc(N)nc(N)c2n1)c1ccc(C(=O)N[C@@H](CCC(=O)O)C(=O)O)cc1 [methotrexate] | – | – | – | 2.7 µM | 3.6 µM | – | – |
| – | – | – | > 100 µM | 5.5 ± 0.21 µM | CC1=C(c2nc3ccccc3[nH]2)C(C)=[N+]2C1=C(c1ccccc1)c1c(C)cc(C)n1[B-]2(F)F [Compound 3a] | – | – | 11.38 | – | – | 63 µM and 62.6 µM | present antitrypanosomal activity |
